From US20240199613A1 (TAKEDA PHARMACEUTICAL COMPANY LIMITED, priority 2021, published 2024)

Assays:
[1] = target: T1, plasma kallikrein (Homo sapiens, UniProt P03952); assay: Neat human plasma assay: contact pathway-activated (FXIIa) plasma, PFR-AMC substrate; assay type: biochemical; conditions: citrated human plasma (78% final), 10 nM human FXIIa, 100 μM PFR-AMC, room temperature
T1 construct: from tissue; host or cells: sodium citrate collected human plasma (78% final)
Protocol: To analyze inhibition of plasma kallikrein in an ex vivo setting, the potency of compounds was measure in contact pathway-activated plasma assays. In a fluorogenic peptide substrate assay, test compounds dissolved in DMSO were added to sodium citrate collected human or rat plasma in a 96-well microplate. Alternatively, citrated plasma was collected from rats administered the compounds orally or by IV. 10 nM of human FXIIa (Enzyme Research Laboratories) diluted in pKal buffer (20 mM Tris-HCl, pH 7.5, 150 mM NaCl, 1 mM EDTA, 0.1% PEG-8000, and 0.1% Triton X-100) was added to the plasma, followed by the 100 μM of the profluorescent, synthetic plasma kallikrein substrate PFR-AMC (also diluted in pKal buffer). Final plasma concentration in the reaction was 78%. Fluorescence was immediately monitored by excitation/emission wavelengths of 360 nm/480 nm respectively over a period of 5 minutes in a microplate reader. The resulting linear increase in fluorescence emission (reflecting pKal proteolysis of PFR-AMC substrate) was fit to extract a proteolytic rate (fluorescent units over time), and this rate was subsequently plotted against compound inhibitor concentration. Resulting plots were fit to a standard 4-parameter IC50/IC90 equation to determine min/max values, IC50/90, and slope. All experimental steps were performed at room temperature.

[2] = target: human activated kallikrein enzyme (Homo sapiens, UniProt P03952); assay: Inhibition of activated plasma kallikrein, fluorogenic peptide substrate (PFR-AMC) assay, 500 pM enzyme format; assay type: biochemical; conditions: 500 pM activated kallikrein, 300 uM PFR-AMC, 30 min preincubation, 10 min reaction, room temperature; read-out: Primary Dose Response Assay: Average EC50
Protocol: Compounds were evaluated for inhibition of the human activated kallikrein enzyme in two formats of an assay employing a fluorogenic peptide substrate. In one assay format, the concentrations of reagents were as follows: 20 mM Tris pH 7.5, 1 mM EDTA, 150 mM sodium chloride, 0.1% PEG-400, 0.1% Triton X-100, 500 pM activated kallikrein enzyme, 300 uM Pro-Phe-Arg-7-amido-4-methylcoumarin (PFR-AMC) substrate. Prior to reaction initiation with substrate, enzyme and inhibitors were preincubated for 30 min at room temperature. After initiation with substrate, reactions were incubated for 10 min at room temperature and fluorescence emission at 460 nm from 380 nm excitation measured with a microplate reader. In another assay format, the concentrations of reagents were as follows: 20 mM Tris pH 7.5, 1 mM EDTA, 150 mM sodium chloride, 0.1% PEG-400, 0.1% Triton X-100, 5 pM activated kallikrein enzyme, 300 uM PFR-AMC substrate. Prior to reaction initiation with substrate, enzyme and inhibitors were preincubated for 30 min at room temperature. After initiation with substrate, reactions were incubated for 18 hr at room temperature and fluorescence emission at 460 nm from 380 nm excitation measured with a microplate reader.
Table 6 provides the results of the assay in the format with 500 pM activated kallikrein assay.

Sequence of human activated kallikrein enzyme (P03952 391-638 limits assumed): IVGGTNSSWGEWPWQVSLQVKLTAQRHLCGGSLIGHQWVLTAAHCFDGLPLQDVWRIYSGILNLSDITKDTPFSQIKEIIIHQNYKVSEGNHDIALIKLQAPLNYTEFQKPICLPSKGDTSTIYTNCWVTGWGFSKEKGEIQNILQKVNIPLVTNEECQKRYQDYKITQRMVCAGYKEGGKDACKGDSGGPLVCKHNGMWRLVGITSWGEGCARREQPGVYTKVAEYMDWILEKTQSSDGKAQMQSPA
Sequence of human activated kallikrein enzyme (P03952 20-390 partner limits assumed): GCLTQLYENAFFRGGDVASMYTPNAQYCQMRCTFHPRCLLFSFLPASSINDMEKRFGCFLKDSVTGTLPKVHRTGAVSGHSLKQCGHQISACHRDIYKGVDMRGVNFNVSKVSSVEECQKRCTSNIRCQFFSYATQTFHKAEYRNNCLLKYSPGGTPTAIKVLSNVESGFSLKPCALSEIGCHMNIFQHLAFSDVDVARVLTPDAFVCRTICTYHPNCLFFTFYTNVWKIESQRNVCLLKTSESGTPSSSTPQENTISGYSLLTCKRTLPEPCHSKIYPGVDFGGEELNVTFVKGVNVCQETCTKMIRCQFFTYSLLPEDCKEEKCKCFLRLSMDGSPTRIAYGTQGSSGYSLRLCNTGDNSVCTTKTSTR
T1 sequence (P03952 391-638 limits assumed): as the sequence (P03952 391-638 limits assumed) above
T1 sequence (P03952 20-390 partner limits assumed): as the sequence (P03952 20-390 partner limits assumed) above

| Structure (SMILES) | IC90 [1] [nM] | EC50 [2] [nM] |
| --- | --- | --- |
| Cc1ccnc([C@H]2C[C@@H]2c2ccc3ccc(NCc4cn5cc(C6CC6)nc(N6CC(=O)N(C)C6=O)c5n4)cc3n2)n1 (racemic) [Example 106, rac-1-(6-cyclopropyl-2-(((2-((1S*,2S*)-2-(4-methylpyrimidin-2-yl)cyclopropyl)quinolin-7-yl)amino)methyl)imidazo[1,2-a]pyrazin-8-yl)-3-methylimidazolidine-2,4-dione] | 1500 to 10000 | 1 to 10 |
| Cc1ccnc([C@H]2C[C@@H]2c2cc(N(C)CC(C)(C)O)c3ccc(NCc4cn5cc(C6CC6)cc(N6CC(=O)N(C)C6=O)c5n4)cc3n2)n1 [Example 100, 1-(6-cyclopropyl-2-(((4-((2-hydroxy-2-methylpropyl)(methyl)amino)-2-((1S,2S)-2-(4-methylpyrimidin-2-yl)cyclopropyl)quinolin-7-yl)amino)methyl)imidazo[1,2-a]pyridin-8-yl)-3-methylimidazolidine-2,4-dione] | ≤ 400 | ≤ 1 |
| Cc1ccnc([C@H]2C[C@@H]2c2cc(N3CC(O)C3)c3ccc(NCc4cn5cc(C6CC6)cc(N6CC(=O)N(C)C6=O)c5n4)cc3n2)n1 [Example 31, 1-(6-cyclopropyl-2-(((4-(3-hydroxyazetidin-1-yl)-2-((1S,2S)-2-(4-methylpyrimidin-2-yl)cyclopropyl)quinolin-7-yl)amino)methyl)imidazo[1,2-a]pyridin-8-yl)-3-methylimidazolidine-2,4-dione] | ≤ 400 | ≤ 1 |
| Cc1cc(N2CC(=O)N(C)C2=O)c2nc(COc3ccc4c(N5CC6(COC6)C5)cc([C@H]5C[C@@H]5c5nccc(C)n5)nc4c3)cn2c1 [Example 96, 3-methyl-1-(6-methyl-2-(((2-((1S,2S)-2-(4-methylpyrimidin-2-yl)cyclopropyl)-4-(2-oxa-6-azaspiro[3.3]heptan-6-yl)quinolin-7-yl)oxy)methyl)imidazo[1,2-a]pyridin-8-yl)imidazolidine-2,4-dione] | ≤ 400 | ≤ 1 |
| Cc1ccnc([C@H]2C[C@@H]2C2=NS(=O)(=O)c3ccc(N(C)Cc4cn5cc(C6CC6)ccc5n4)cc3N2)n1 (racemic) [Example 80, rac-6-(((6-cyclopropylimidazo[1,2-a]pyridin-2-yl)methyl)(methyl)amino)-3-((1S*,2S*)-2-(4-methylpyrimidin-2-yl)cyclopropyl)-4H-benzo[e][1,2,4]thiadiazine 1,1-dioxide] | 1500 to 10000 | ≤ 1 |
| Cc1ccnc([C@H]2C[C@@H]2c2cc(NCC(C)(C)O)c3ccc(OCc4cn5cc(C6CC6)cc(N6CC(=O)N(C)C6=O)c5n4)cc3n2)n1 [Example 97, 1-(6-cyclopropyl-2-(((4-((2-hydroxy-2-methylpropyl)amino)-2-((1S,2S)-2-(4-methylpyrimidin-2-yl)cyclopropyl)quinolin-7-yl)oxy)methyl)imidazo[1,2-a]pyridin-8-yl)-3-methylimidazolidine-2,4-dione] | ≤ 400 | ≤ 1 |
| COc1cc([C@H]2C[C@@H]2c2nccc(C)n2)nc2cc(NCc3cn4cc(C5CC5)ccc4n3)ccc12 (racemic) [Example 20, rac-N-((6-cyclopropylimidazo[1,2-a]pyridin-2-yl)methyl)-4-methoxy-2-((1S*,2S*)-2-(4-methylpyrimidin-2-yl)cyclopropyl)quinolin-7-amine] | 10000 to 22000 | 1 to 10 |
| Cc1ccnc([C@H]2C[C@@H]2c2cc(N3CC4(COC4)C3)c3cnc(OCc4cn5cc(C6CC6)cc(N6CC(=O)N(C)C6=O)c5n4)cc3n2)n1 [Example 103, 1-(6-cyclopropyl-2-(((2-((1S,2S)-2-(4-methylpyrimidin-2-yl)cyclopropyl)-4-(2-oxa-6-azaspiro[3.3]heptan-6-yl)-1,6-naphthyridin-7-yl)oxy)methyl)imidazo[1,2-a]pyridin-8-yl)-3-methylimidazolidine-2,4-dione] | ≤ 400 | ≤ 1 |
| Cc1ccnc([C@H]2C[C@@H]2c2cc(N3CCS(=O)(=O)CC3)c3ccc(NCc4cn5cc(C6CC6)cc(N6CC(=O)N(C)C6=O)c5n4)cc3n2)n1 [Example 37, 1-(6-cyclopropyl-2-(((4-(1,1-dioxidothiomorpholino)-2-((1S,2S)-2-(4-methylpyrimidin-2-yl)cyclopropyl)quinolin-7-yl)amino)methyl)imidazo[1,2-a]pyridin-8-yl)-3-methylimidazolidine-2,4-dione] | ≤ 400 | ≤ 1 |
| Cc1ccnc([C@H]2C[C@@H]2c2cc(O)c3ccc(N4C[C@@H](O)C[C@@H]4c4cn5cc(C6CC6)ccc5n4)cc3n2)n1 (relative stereo) [Example 54, rac-7-((2R,4S)-2-(6-cyclopropylimidazo[1,2-a]pyridin-2-yl)-4-hydroxypyrrolidin-1-yl)-2-((1S*,2S*)-2-(4-methylpyrimidin-2-yl)cyclopropyl)quinolin-4-ol] | 1500 to 10000 | 1 to 10 |
| Cc1ccnc([C@H]2C[C@@H]2c2cc(N3CCC3)c3ccc(NCc4cn5cc(C6CC6)cc(N6CC(=O)N(C)C6=O)c5n4)cc3n2)n1 [Example 30, 1-(2-(((4-(azetidin-1-yl)-2-((1S,2S)-2-(4-methylpyrimidin-2-yl)cyclopropyl)quinolin-7-yl)amino)methyl)-6-cyclopropylimidazo[1,2-a]pyridin-8-yl)-3-methylimidazolidine-2,4-dione] | ≤ 400 | ≤ 1 |
| Cc1ccnc([C@H]2C[C@@H]2C2=CS(=O)(=O)c3ccc(NCc4cn5cc(C6CC6)cc(N6CC(=O)N(C)C6=O)c5n4)cc3N2)n1 (racemic) [Example 61, rac-1-(6-cyclopropyl-2-(((3-((1S*,2S*)-2-(4-methylpyrimidin-2-yl)cyclopropyl)-1,1-dioxido-4H-benzo[b][1,4]thiazin-6-yl)amino)methyl)imidazo[1,2-a]pyridin-8-yl)-3-methylimidazolidine-2,4-dione] | 400 to 1500 | ≤ 1 |
| Cc1ccnc([C@H]2C[C@@H]2C2=NS(=O)(=O)c3cc4c(cc3N2)N(Cc2cn3cc(C5CC5)ccc3n2)CCO4)n1 [Example 93, 6-((6-cyclopropylimidazo[1,2-a]pyridin-2-yl)methyl)-3-((1S,2S)-2-(4-methylpyrimidin-2-yl)cyclopropyl)-7,8-dihydro-4H,6H-[1,4]oxazino[2′,3′:4,5]benzo[1,2-e][1,2,4]thiadiazine 1,1-dioxide] | 1500 to 10000 | ≤ 1 |
| Cc1ccnc([C@H]2C[C@@H]2c2cc(N3CC4(COC4)C3)c3ccc(OCc4cn5cc(C6CC6)cc(N6CC(=O)N(C)C6=O)c5n4)cc3n2)n1 [Example 43, 1-[6-cyclopropyl-2-[[2-[(1S,2S)-2-(4-methylpyrimidin-2-yl)cyclopropyl]-4-(2-oxa-6-azaspiro[3.3]heptan-6-yl)-7-quinolyl]oxymethyl]imidazo[1,2-a]pyridin-8-yl]-3-methyl-imidazolidine-2,4-dione] | ≤ 400 | ≤ 1 |
| Cc1ccnc([C@H]2C[C@@H]2c2ccc3ncc(NCc4cn5cc(C6CC6)cc(N6CC(=O)N(C)C6=O)c5n4)cc3n2)n1 (racemic) [Example 14, rac-1-(6-cyclopropyl-2-(((6-((1S*,2S*)-2-(4-methylpyrimidin-2-yl)cyclopropyl)-1,5-naphthyridin-3-yl)amino)methyl)imidazo[1,2-a]pyridin-8-yl)-3-methylimidazolidine-2,4-dione] | 1500 to 10000 | 1 to 10 |
